# From ChEMBL document CHEMBL1914304 (J Med Chem, 2011)
# Tests used:
# BJ = assay: Cytotoxicity against human BJ cells after 72 hrs by luminescence assay; type: cell-based
# Raji = assay: Cytotoxicity against human Raji cells after 72 hrs by luminescence assay; type: cell-based
# [1] = Selectivity ratio of EC50 for human HepG2 cells to EC50 for Plasmodium falciparum
# HEK293 = assay: Cytotoxicity against human HEK293 cells after 72 hrs by luminescence assay; type: cell-based; details: hek293, 72 h
# HepG2 = assay: Cytotoxicity against human HepG2 cells after 72 hrs by luminescence assay; type: cell-based; details: hepg2, 72 h
Compound,Activity (BJ),Activity (Raji),selectivity ratio [1],Activity (HEK293),Activity (HepG2)
Cl.O=C(/C=C/c1ccccc1)c1ccccc1O,Non-toxic,Non-toxic,> 10,Non-toxic,Non-toxic
Cl.O=C(/C=C/c1ccccc1)c1cc(F)ccc1O,Non-toxic,Non-toxic,> 10,Non-toxic,Non-toxic
Cl.O=C(/C=C/c1ccc(F)cc1)c1ccccc1O,Non-toxic,Non-toxic,> 10,Non-toxic,Non-toxic
Cl.O=C(/C=C/c1ccc(F)cc1)c1cc(F)ccc1O,Non-toxic,Non-toxic,> 10,Non-toxic,Non-toxic
Cl.O=C(CCc1ccccc1)c1ccccc1O,Non-toxic,Non-toxic,> 10,Non-toxic,Non-toxic
Cl.O=C(CCc1ccccc1)c1cc(F)ccc1O,Non-toxic,Non-toxic,> 10,Non-toxic,Non-toxic
Cl.O=C(CCc1ccc(F)cc1)c1ccccc1O,Non-toxic,Non-toxic,> 10,Non-toxic,Non-toxic
Cl.O=C(CCc1ccc(F)cc1)c1cc(F)ccc1O,Non-toxic,Non-toxic,> 10,Non-toxic,Non-toxic
Cc1ccccc1N1CCN(CC(O)COc2ccc(F)cc2C(=O)CCc2ccc(F)cc2)CC1.Cl (racemic),Non-toxic,Non-toxic,> 10,Non-toxic,Non-toxic
Cc1cccc(N2CCN(CC(O)COc3ccc(F)cc3C(=O)CCc3ccc(F)cc3)CC2)c1.Cl (racemic),Non-toxic,Non-toxic,> 10,Non-toxic,Non-toxic
Cc1ccc(N2CCN(CC(O)COc3ccc(F)cc3C(=O)CCc3ccc(F)cc3)CC2)cc1.Cl (racemic),Non-toxic,Non-toxic,> 10,Non-toxic,Non-toxic
COc1ccccc1N1CCN(CC(O)COc2ccc(F)cc2C(=O)CCc2ccc(F)cc2)CC1.Cl (racemic),Non-toxic,Non-toxic,> 10,Non-toxic,Non-toxic
COc1cccc(N2CCN(CC(O)COc3ccc(F)cc3C(=O)CCc3ccc(F)cc3)CC2)c1.Cl (racemic),Non-toxic,Non-toxic,> 10,Non-toxic,Non-toxic
COc1ccc(N2CCN(CC(O)COc3ccc(F)cc3C(=O)CCc3ccc(F)cc3)CC2)cc1.Cl (racemic),Non-toxic,Non-toxic,> 10,Non-toxic,Non-toxic
Cl.O=C(CCc1ccc(F)cc1)c1cc(F)ccc1OCC(O)CN1CCN(c2ccccc2Cl)CC1 (racemic),Non-toxic,Non-toxic,> 10,Non-toxic,Non-toxic
Cl.O=C(CCc1ccc(F)cc1)c1cc(F)ccc1OCC(O)CN1CCN(c2ccc(Cl)cc2)CC1 (racemic),Non-toxic,Non-toxic,> 10,Non-toxic,Non-toxic
Cl.O=C(CCc1ccc(F)cc1)c1cc(F)ccc1OCC(O)CN1CCN(c2ccc(Cl)c(Cl)c2)CC1 (racemic),Non-toxic,Non-toxic,> 10,Non-toxic,Non-toxic
Cl.O=C(CCc1ccc(F)cc1)c1cc(F)ccc1OCC(O)CN1CCN(c2ccccc2F)CC1 (racemic),Non-toxic,Non-toxic,> 10,Non-toxic,Non-toxic
Cl.O=C(CCc1ccc(F)cc1)c1cc(F)ccc1OCC(O)CN1CCN(c2ccc(F)cc2)CC1 (racemic),Non-toxic,Non-toxic,> 10,Non-toxic,Non-toxic
Cl.O=C(CCc1ccc(F)cc1)c1cc(F)ccc1OCC(O)CN1CCN(c2ccc([N+](=O)[O-])cc2)CC1 (racemic),Non-toxic,Non-toxic,> 10,Non-toxic,Non-toxic

Compound,Activity (BJ),Activity (Raji),selectivity ratio [1],Activity (HEK293),Activity (HepG2)
Cl.Nc1ccc(N2CCN(CC(O)COc3ccc(F)cc3C(=O)CCc3ccc(F)cc3)CC2)cc1 (racemic),Non-toxic,Non-toxic,> 10,Non-toxic,Non-toxic
Cl.O=C(CCc1ccc(F)cc1)c1cc(F)ccc1OCC(O)CN1CCN(c2ccc(O)cc2)CC1 (racemic),Non-toxic,Non-toxic,> 10,Non-toxic,Non-toxic
Cl.O=C(CCc1ccc(F)cc1)c1cc(F)ccc1OCC(O)CN1CCN(c2ccc(C(F)(F)F)cc2)CC1 (racemic),Non-toxic,Non-toxic,> 10,Non-toxic,Non-toxic
Cl.O=C(CCc1ccc(F)cc1)c1cc(F)ccc1OCC(O)CN1CCN(C(=O)c2ccccc2)CC1 (racemic),Non-toxic,Non-toxic,> 10,Non-toxic,Non-toxic
Cl.O=C(CCc1ccc(F)cc1)c1cc(F)ccc1OCC(O)CN1CCN(C(c2ccccc2)c2ccccc2)CC1 (racemic),Non-toxic,Non-toxic,> 10,Non-toxic,Non-toxic
CN1CCN(CC(O)COc2ccc(F)cc2C(=O)CCc2ccc(F)cc2)CC1.Cl (racemic),Non-toxic,Non-toxic,> 10,Non-toxic,Non-toxic
CCN1CCN(CC(O)COc2ccc(F)cc2C(=O)CCc2ccc(F)cc2)CC1.Cl (racemic),Non-toxic,Non-toxic,> 10,Non-toxic,Non-toxic
Cl.O=C(CCc1ccc(F)cc1)c1cc(F)ccc1OCC(O)CN1CCOCC1 (racemic),Non-toxic,Non-toxic,> 10,Non-toxic,Non-toxic
Cl.O=C(CCc1ccccc1)c1ccccc1OCC(O)Cn1ccc2ccccc21 (racemic),Non-toxic,Non-toxic,> 10,Non-toxic,Non-toxic
CC(C)c1nccn1CC(O)COc1ccccc1C(=O)CCc1ccccc1.Cl (racemic),Non-toxic,Non-toxic,> 10,Non-toxic,Non-toxic
Cl.O=C(CCc1ccccc1)c1ccccc1OCC(O)CC1CCCC1 (racemic),Non-toxic,Non-toxic,> 10,Non-toxic,Non-toxic
Cl.O=C(CCc1ccc(F)cc1)c1ccccc1OCC(O)Cn1ccc2ccccc21 (racemic),Non-toxic,Non-toxic,> 10,Non-toxic,Non-toxic
CC(C)c1nccn1CC(O)COc1ccccc1C(=O)CCc1ccc(F)cc1.Cl (racemic),Non-toxic,Non-toxic,> 10,Non-toxic,Non-toxic
Cl.O=C(CCc1ccc(F)cc1)c1ccccc1OCC(O)CC1CCCC1 (racemic),Non-toxic,Non-toxic,> 10,Non-toxic,Non-toxic
Cl.O=C(CCc1ccccc1)c1cc(F)ccc1OCC(O)Cn1ccc2ccccc21 (racemic),Non-toxic,Non-toxic,> 10,Non-toxic,Non-toxic
CC(C)c1nccn1CC(O)COc1ccc(F)cc1C(=O)CCc1ccccc1.Cl (racemic),Non-toxic,Non-toxic,> 10,Non-toxic,Non-toxic
Cl.O=C(CCc1ccccc1)c1cc(F)ccc1OCC(O)CC1CCCC1 (racemic),Non-toxic,Non-toxic,> 10,Non-toxic,Non-toxic
Cl.O=C(CCc1ccc(F)cc1)c1cc(F)ccc1OCC(O)Cn1ccc2ccccc21 (racemic),Non-toxic,Non-toxic,> 10,Non-toxic,Non-toxic
CC(C)c1nccn1CC(O)COc1ccc(F)cc1C(=O)CCc1ccc(F)cc1.Cl (racemic),Non-toxic,Non-toxic,> 10,Non-toxic,Non-toxic
Cl.O=C(CCc1ccc(F)cc1)c1cc(F)ccc1OCC(O)CC1CCCC1 (racemic),Non-toxic,Non-toxic,> 10,Non-toxic,Non-toxic
